Like-named read-outs stand apart in the source and are kept apart here.
How the values were obtained:
C8166 cells = assay: Cytotoxicity assay (MTT); format: cell-based
Experimental: (§1) The cytotoxicty assay was performed by 3-(4,5-dimethylthiazol-2-yl)-2,5-diphenyl tetrazoliumbromide (MTT) method. Briefly, 100 μL 4 × 10^4 C8166 cells were seeded each well with 100 μL of different concentrations of compounds in a 96-well plate. The plate was incubated 72 h at 37 °C, 5% CO2 incubator. MTT (20 μL, 5 mg/mL) was added to each well and the plate was incubated at 37 °C for 4 h. Supernatant (100 μL) was discarded and 20% SDS-50% DMF (100 μL) was added. The plates were read at 570/630 nm by a Bio-Tek Elx 800 reader (Bio-Tek Instruments, Inc., Winooski, VT, USA). The 50% cytotoxic concentration (CC50) was calculated.

HIV-1IIIB = assay: Syncytia inhibition assay (HIV-1IIIB infected C8166 cells); format: cell-based; conditions: for TI (in vitro therapeutic index, CC50 value/EC50 value): CC50 in C8166 cells / EC50 syncytia inhibition; for EC50: HIV-1IIIB infected C8166 cells, 72 h, means of two separate experiments, read-out: EC50 (50% effective concentration, reduces syncytia formation by 50%)
Experimental: Target compounds 6–16 were evaluated for their inhibitory activity against HIV-1 replication in acutely infected C8166 cells in vitro according to the previously described method, and AZT was used as a positive control. The assay results of the target compounds are presented in Table 1 and Table 2, expressed as CC50, EC50 and therapeutic index (TI).
The syncytia inhibition assay was applied by counting syncytia which were formed by HIV-1IIIB infected C8166 cells. Briefly, HIV-1IIIB supernatant and C8166 cells were seeded in a 96-well plate with different concentration of compounds. The plate was incubated in a 37 °C, 5% CO2 incubator for 72 h. Syncytia were counting under an inverted microscope and 50% effective concentration (EC50) was calculated. Therapeutic index (TI) was calculated by the ratio of CC50/EC50.

Cytotoxicity assay (MTT) = format: cell-based; conditions: human; C8166 cells, MTT, 72 h; means of two separate experiments; read-out: CC50 (50% cytotoxic concentration)
Experimental: as §1

HIV = test system: HIV; parameters: method as in earlier work; conditions: Figure 1; cited from earlier work
[1] = Human immunodeficiency virus 1, C8166, 72 h

Compound | CC50 (C8166 cells) [µM] | TI (in vitro therapeutic index, CC50 value/EC50 value) (HIV-1IIIB) | EC50 (HIV-1IIIB) [µM] | CC50 (C8166 cells; C8166 cells, MTT, 72 h, means of two separate experiments, read-out: CC50 (50% cytotoxic concentration)) [µM] | CC50 at 72 h (Cytotoxicity assay (MTT)) [µM] | EC50 (HIV-1IIIB; [1]) [µM] | EC50 (HIV) [µM]
3-(2,3-Dihydroxyphenyl)-1-(4-fluorophenyl)-5-[2-(4-fluorophenyl)ethyl]-3a,6a-dihydro-1H-pyrrolo[3,4-c]pyrazole-4,6-dione [10b] | 189 | 39.85 | 4.73 |  |  |  | 
Cc1cn([C@H]2C[C@H](N=[N+]=[N-])[C@@H](CO)O2)c(=O)[nH]c1=O [AZT, reference compound] |  | 444,588 | 0.0085 | 3780 |  |  | 
COc1cccc(C2=NN(c3ccc(F)cc3)C3C(=O)N(CCc4ccc(F)cc4)C(=O)C23)c1O (centres unmarked) [9g, 1-(4-Fluorophenyl)-5-[2-(4-fluorophenyl)ethyl]-3-(2-hydroxy-3-methoxyphenyl)-3a,6a-dihydro-1H-pyrrolo[3,4-c]pyrazole-4,6-dione] |  | >105.26 | 3.98 |  | > 419 | < 5 | 
CCOC(=O)c1ncc(O)c2c1C(=O)N(CCc1ccc(F)cc1)C2=O [compound 5] |  |  |  |  |  |  | 1.65
O=C1C2C(c3cccc(F)c3O)=NN(c3ccc(F)cc3)C2C(=O)N1CCc1ccc(F)cc1 (centres unmarked) [9b, 1-(4-Fluorophenyl)-5-[2-(4-fluorophenyl)ethyl]-3-(3-fluoro-2-hydroxyphenyl)-3a,6a-dihydro-1H-pyrrolo[3,4-c]pyrazole-4,6-dione] |  | 24.58 |  |  | 141 | 5.74 | 
O=C1C2C(c3cccc(Cl)c3O)=NN(c3ccc(F)cc3)C2C(=O)N1CCc1ccc(F)cc1 (centres unmarked) [9d, 3-(3-Chloro-2-hydroxyphenyl)-1-(4-fluorophenyl)-5-[2-(4-fluorophenyl)ethyl]-3a,6a-dihydro-1H-pyrrolo[3,4-c]pyrazole-4,6-dione] |  | 16.23 |  |  | 332 | 20.4 | 
COc1cccc(C2=NN(c3ccccc3F)C3C(=O)N(CCc4ccc(F)cc4)C(=O)C23)c1O (centres unmarked) [15b, 1-(2-Fluorophenyl)-5-[2-(4-fluorophenyl)ethyl]-3-(2-hydroxy-3-methoxyphenyl)-3a,6a-dihydro-1H-pyrrolo[3,4-c]pyrazole-4,6-dione] |  | >3.71 |  |  | > 419 | 113 | 
COc1cccc(C2=NN(c3ccc(F)cc3)C3C(=O)N(CCc4cccc(F)c4)C(=O)C23)c1O (centres unmarked) [16b, 1-(4-Fluorophenyl)-5-[2-(3-fluorophenyl)ethyl]-3-(2-hydroxy-3-methoxyphenyl)-3a,6a-dihydro-1H-pyrrolo[3,4-c]pyrazole-4,6-dione] |  | 11.01 |  |  | 143 | 13 | 
COc1cccc(C2=NN(c3ccc(F)cc3)C3C(=O)N(CCc4ccc(Cl)cc4)C(=O)C23)c1O (centres unmarked) [16c, 5-[2-(4-Chlorophenyl)-ethyl]-1-(4-fluorophenyl)-3-(2-hydroxy-3-methoxyphenyl)-3a,6a-dihydro-1H-pyrrolo[3,4-c]pyrazole-4,6-dione] |  | 6.73 |  |  | 70.1 | 10.4 | 
COc1cccc(C2=NN(c3ccc(F)cc3)C3C(=O)N(CCc4ccccc4F)C(=O)C23)c1O (centres unmarked) [16a, 1-(4-Fluorophenyl)-5-[2-(2-fluorophenyl)ethyl]-3-(2-hydroxy-3-methoxyphenyl)-3a,6a-dihydro-1H-pyrrolo[3,4-c]pyrazole-4,6-dione] |  | 7.78 |  |  | 19.6 | 2.52 | 
Cc1cccc(C2=NN(c3ccc(F)cc3)C3C(=O)N(CCc4ccc(F)cc4)C(=O)C23)c1O (centres unmarked) [9f, 1-(4-Fluoro-phenyl)-5-[2-(4-fluoro-phenyl)-ethyl]-3-(2-hydroxy-3-methyl-phenyl)-3a,6a-dihydro-1H-pyrrolo[3,4-c]pyrazole-4,6-dione] |  | 30.73 |  |  | 151 | 4.9 | 
O=C1C2C(c3cccc([N+](=O)[O-])c3O)=NN(c3ccc(F)cc3)C2C(=O)N1CCc1ccc(F)cc1 (centres unmarked) [9e, 1-(4-Fluorophenyl)-5-[2-(4-fluorophenyl)ethyl]-3-(2-hydroxy-3-nitrophenyl)-3a,6a-dihydro-1H-pyrrolo[3,4-c]pyrazole-4,6-dione] |  | 6.56 |  |  | 49.5 | 7.55 | 
O=C1C2C(c3ccccc3O)=NN(c3ccc(F)cc3)C2C(=O)N1CCc1ccc(F)cc1 (centres unmarked) [compound 8, 1-(4-Fluorophenyl)-5-[2-(4-fluorophenyl)ethyl]-3-(2-hydroxyphenyl)-3a,6a-dihydro-1H-pyrrolo[3,4-c]pyrazole-4,6-dione] |  | >44.25 |  |  | > 447 | 10.1 | 
CCOc1cccc(C2=NN(c3ccc(F)cc3)C3C(=O)N(CCc4ccc(F)cc4)C(=O)C23)c1O (centres unmarked) [10c, 1-(4-Fluorophenyl)-5-[2-(4-fluorophenyl)ethyl]-3-(3-ethoxy-2-hydroxyphenyl)-3a,6a-dihydro-1H-pyrrolo[3,4-c]pyrazole-4,6-dione] |  | >3.51 |  |  | > 407 | 116 | 
COc1cccc(C2=NN(c3ccc(C(F)(F)F)cc3)C3C(=O)N(CCc4ccc(F)cc4)C(=O)C23)c1O (centres unmarked) [15e, 5-[2-(4-Fluorophenyl)-ethyl]-3-(2-hydroxy-3-methoxyphenyl)-1-(4-trifluoromethylphenyl)-3a,6a-dihydro-1H-pyrrolo[3,4-c]pyrazole-4,6-dione] |  | >11.81 |  |  | > 379 | 32.1 | 
